PMC5297809, “Design, Synthesis and Antifungal Activity Evaluation of New Thiazolin-4-ones as Potential Lanosterol 14α-Demethylase Inhibitors” (International Journal of Molecular Sciences, 2017)
In brackets after ≈: the same amount, converted by molar mass.

Assays:
[1] = system: Candida parapsilosis ATCC 22019; test: broth microdilution MIC/MFC; assay type: cell-based; conditions: Lodderomyces parapsilosis, ATCC22019, C. parapsilosis ATCC 22019; for MFC: read-out: MFC; for MIC: read-out: MIC
[2] = system: Candida albicans ATCC 10231; test: broth microdilution MIC/MFC; assay type: cell-based; conditions: for MFC: ATCC10231, C. albicans ATCC 10231, read-out: MFC; for MIC: ATCC10231, C. albicans ATCC 10231, read-out: MIC
four strains of Candida = test: broth microdilution MIC/MFC, summary over the four strains; assay type: cell-based; conditions: for MFC / MIC: summary over two C. albicans, one C. krusei and one C. parapsilosis strain; for fold more active than fluconazole: anti-Candida activity
Candida krusei ATCC 6258 = test: broth microdilution MIC/MFC; assay type: cell-based; conditions: Pichia kudriavzevii, ATCC6258, C. krusei ATCC 6258; for MFC: read-out: MFC; for MIC: read-out: MIC
[3] = system: Candida albicans ATCC 18804; test: broth microdilution MIC/MFC; assay type: cell-based; conditions: for MFC: ATCC18804, C. albicans ATCC 18804, read-out: MFC; for MIC: ATCC18804, C. albicans ATCC 18804, read-out: MIC
[4] = system: Candida albicans ATCC 10231; test: cup-plate agar diffusion method, inhibition zone diameters; assay type: cell-based; conditions: ATCC10231, C. albicans ATCC 10231, 1 mg/mL in DMSO, 20 µg/well, mean of three ± SD, read-out: inhibition zone diameters
[5] = lipophilicity by RP-TLC with PCA; assay type: physicochemical; design: key to P1 / P2: PCA scores of compounds computed from Rf data; conditions: for RM0: RP-TLC C18, water-i-propanol 45-65%, intercept, RM extrapolated to 0% organic modifier (lipophilicity); for b: RP-TLC regression slope (specific hydrophobic surface area); for P1: score of first principal component of Rf data, low P1 = highly lipophilic; for P2: score of second principal component of Rf data
Procedure: The lipophilic character of twenty thiazolin-4-one derivatives was assessed with the help of the principal component analysis (PCA) based on the reversed-phase thin-layer chromatography (RP-TLC) data.
The chromatographic behavior of the test compounds was studied on C18 silicagel bonded 60 RP-180F254S TLC (20 × 20 cm) plates, purchased from Merck (Darmstadt, Germany). The test compounds’ solutions (1 mg/mL) were prepared by dissolving the samples in DMSO (Merck, Darmstadt, Germany). The plates were manually spotted with 3 µL aliquots of each solution at 10 mm from the base and 5 mm from the edge of the plate, leaving a 10 mm distance between successive spots, and developed by the ascending technique, without preconditioning. Chromatography was performed in a normal developing chamber at room temperature (~24 °C), the developing distance being of 9 cm. The solvent system used as mobile phase consisted of a water-i-propanol mixture, with a varying content of organic modifier (i-propanol—concentration ranged between 45% and 65% (v/v), with 5% vol. increments). Before the development, the chamber was saturated with the mobile phase for 15 min. After being developed, the dried plates were visually inspected under the UV light (λ = 254 nm), each spot was clearly marked and its distance was manually measured in order to calculate the Rf values. The spots of the compounds 3f, 10 and 11 were not visible in UV light, thus their Rf values could not be calculated, therefore they were excluded from this assay.
Based on the Rf values, one of the most common lipophilic estimator, meaning the isocratic retention factor RM was calculated using the Bate-Smith and Westall equations [40].
RP-TLC provides retention data in the form of Rf and the corresponding RM values (Equation (2)) that can be used to derive chromatographic descriptors for estimating lipophilicity: RM0, b and PCA. The most popular lipophilicity descriptor estimated by this method is RM and it is derived from the retention factor (Rf) according to the following formula: RM = log[(1/Rf) − 1] (2) where Rf is calculated on the basis of migration distance of a compound and the solvent front.
As RM value (related to the molecular lipophilicity) depends linearly on the concentration of the organic modifier in the mobile phase, the value is extrapolated to pure water as mobile phase. In order to increase the accuracy of the lipophilicity determination, the RM values extrapolated to zero organic modifier concentration (RM0) have been calculated from the linear correlation between the RM values and the concentration of the organic component of the mobile phase: RM = RM0 + bc (3) where RM0 is the lipophilicity estimation parameter, RM is the retention of the solute, b is the slope, and c is the concentration of the mobile phase organic modifier (i-propanol).
The intercept (RM0) in Equation (3) represents the extrapolated RM values at 0% organic modifier.
PCA was performed on the obtained retention parameters with the help of XL-STAT extension. […] PCA gave the coordinates (scores) of the studied compounds and also the loadings of the variables (solvents) on the principal components.

Compound | MIC [1] | MIC [2] | MIC (Candida krusei ATCC 6258) | MIC [3] | RM0 [5] | b [5] | P1 [5] | P2 [5] | melting point | MFC [1] | MFC [2] | MFC (four strains of Candida) | MIC (four strains of Candida) | MFC (Candida krusei ATCC 6258) | MFC [3] | zone of inhibition at 1000 µg/mL [4] | fold more active than fluconazole (four strains of Candida)
CC(=O)N1CCN(c2ccc(OCC3COC(Cn4ccnc4)(c4ccc(Cl)cc4Cl)O3)cc2)CC1 (stereo not drawn) [Ketoconazole, reference compound] | 3.9 mg/L (≈ 7.34 µM) | 7.81 mg/L (≈ 14.7 µM) | 7.81 mg/L (≈ 14.7 µM) | 7.81 mg/L (≈ 14.7 µM) |  |  |  |  |  | 7.81 mg/L (≈ 14.7 µM) | 15.6 mg/L (≈ 29.4 µM) | 7.81 to 15.6 mg/L (≈ 14.7 to 29.4 µM) | 3.9 to 7.81 mg/L (≈ 7.34 to 14.7 µM) | 15.6 mg/L (≈ 29.4 µM) | 15.6 mg/L (≈ 29.4 µM) |  | 
CNC1=NC(=O)CS1 [Compound 10, 2-(methylamino)thiazol-4(5H)-one] | 0.015 mg/L (≈ 0.115 µM) | 0.015 mg/L (≈ 0.115 µM) | 0.015 mg/L (≈ 0.115 µM) | 0.015 mg/L (≈ 0.115 µM) |  |  |  |  |  | 0.015 mg/L (≈ 0.115 µM) | 0.03 mg/L (≈ 0.23 µM) | 0.015 mg/L (≈ 0.115 µM) | 0.015 mg/L (≈ 0.115 µM) | 0.015 mg/L (≈ 0.115 µM) | 0.03 mg/L (≈ 0.23 µM) | 22 ± 1 mm | over 500 fold
C=CCNC1=NC(=O)C(=Cc2ccc(O)cc2)S1 [Compound 3h, 2-(Allylamino)-5-(4-hydroxybenzylidene)thiazol-4(5H)-one] | 0.12 mg/L (≈ 0.461 µM) | 0.24 mg/L (≈ 0.922 µM) | 0.24 mg/L (≈ 0.922 µM) | 0.48 mg/L (≈ 1.84 µM) | 1.1465 | −2.6897 | 2.905 | 0.056 | 338 °C | 0.97 mg/L (≈ 3.73 µM) | 0.48 mg/L (≈ 1.84 µM) |  |  | 0.97 mg/L (≈ 3.73 µM) | 0.97 mg/L (≈ 3.73 µM) | 20 ± 0.5 mm | 
C=CCNC1=NC(=O)C(=Cc2ccc(O)c(OC)c2)S1 [Compound 3g, 2-(Allylamino)-5-(4-hydroxy-3-methoxybenzylidene)thiazol-4(5H)-one] | 0.24 mg/L (≈ 0.827 µM) | 0.48 mg/L (≈ 1.65 µM) | 0.48 mg/L (≈ 1.65 µM) | 0.48 mg/L (≈ 1.65 µM) | 0.6734 | −1.9546 | 3.365 | 0.453 | 240 °C | 0.48 mg/L (≈ 1.65 µM) | 1.95 mg/L (≈ 6.72 µM) |  |  | 1.95 mg/L (≈ 6.72 µM) | 0.97 mg/L (≈ 3.34 µM) | 22 ± 0.2 mm | 
O=C1N=C(Nc2cccc3ccccc23)SC1=Cc1ccc(Cl)cc1Cl [Compound 9b, 5-(2,4-Dichlorobenzylidene)-2-(naphthalen-1-ylamino)thiazol-4(5H)-one] | 0.015 mg/L (≈ 0.0376 µM) | 0.015 mg/L (≈ 0.0376 µM) | 0.015 mg/L (≈ 0.0376 µM) | 0.015 mg/L (≈ 0.0376 µM) | 2.9283 | −4.3675 | −2.876 | 0.232 | 185 °C | 0.015 mg/L (≈ 0.0376 µM) | 0.03 mg/L (≈ 0.0751 µM) | 0.015 mg/L (≈ 0.0376 µM) | 0.015 mg/L (≈ 0.0376 µM) | 0.015 mg/L (≈ 0.0376 µM) | 0.03 mg/L (≈ 0.0751 µM) | 18 ± 0.2 mm | over 500 fold
OC(Cn1cncn1)(Cn1cncn1)c1ccc(F)cc1F [Fluconazole, reference compound] | 7.81 mg/L (≈ 25.5 µM) | 15.6 mg/L (≈ 51 µM) | 15.6 mg/L (≈ 51 µM) | 15.6 mg/L (≈ 51 µM) |  |  |  |  |  | 15.6 mg/L (≈ 51 µM) | 31.2 mg/L (≈ 102 µM) | 15.6 to 31.2 mg/L (≈ 51 to 102 µM) | 7.81 to 15.6 mg/L (≈ 25.5 to 51 µM) | 31.2 mg/L (≈ 102 µM) | 31.2 mg/L (≈ 102 µM) | 22 ± 0.5 mm | 
C=CCNC1=NC(=O)C(=Cc2ccc(Cl)cc2Cl)S1 [Compound 3b, 2-(Allylamino)-5-(2,4-dichlorobenzylidene)thiazol-4(5H)-one] | 7.81 mg/L (≈ 24.9 µM) | 31.2 mg/L (≈ 99.8 µM) | 15.6 mg/L (≈ 49.9 µM) | 15.6 mg/L (≈ 49.9 µM) | 2.2398 | −3.6102 | −1.263 | −0.062 | 238 °C | 15.6 mg/L (≈ 49.9 µM) | 31.2 mg/L (≈ 99.8 µM) |  |  | 31.2 mg/L (≈ 99.8 µM) | 15.6 mg/L (≈ 49.9 µM) | 20 ± 0.5 mm | 

Continued, in another order:

MIC [1] | MIC [2] | MIC (Candida krusei ATCC 6258) | MIC [3] | RM0 [5] | b [5] | P1 [5] | P2 [5] | melting point | Compound | MFC [1] | MFC [2] | MFC (four strains of Candida) | MIC (four strains of Candida) | MFC (Candida krusei ATCC 6258) | MFC [3] | zone of inhibition at 1000 µg/mL [4] | fold more active than fluconazole (four strains of Candida)
3.9 mg/L (≈ 11.2 µM) | 15.6 mg/L (≈ 44.7 µM) | 7.81 mg/L (≈ 22.4 µM) | 15.6 mg/L (≈ 44.7 µM) | 2.4679 | −4.0118 | −1.253 | −0.186 | 204 to 206 °C | O=C1N=C(Nc2ccccc2)SC1=Cc1ccc(Cl)cc1Cl [Compound 6b, 5-(2,4-Dichlorobenzylidene)-2-(phenylamino)thiazol-4(5H)-one] | 3.9 mg/L (≈ 11.2 µM) | 31.2 mg/L (≈ 89.5 µM) |  |  | 7.81 mg/L (≈ 22.4 µM) | 31.2 mg/L (≈ 89.5 µM) | 20 ± 1 mm | 
0.97 mg/L (≈ 2.98 µM) | 0.97 mg/L (≈ 2.98 µM) | 0.97 mg/L (≈ 2.98 µM) | 1.95 mg/L (≈ 5.99 µM) | 1.7388 | −3.3696 | 1.394 | −0.304 | 347 °C | O=C1N=C(Nc2ccccc2)SC1=Cc1ccc([N+](=O)[O-])cc1 [Compound 6c, 5-(4-Nitrobenzylidene)-2-(phenylamino)thiazol-4(5H)-one] | 1.95 mg/L (≈ 5.99 µM) | 1.95 mg/L (≈ 5.99 µM) |  |  | 1.95 mg/L (≈ 5.99 µM) | 3.9 mg/L (≈ 12 µM) | 20 ± 1 mm | 
0.48 mg/L (≈ 1.25 µM) | 1.95 mg/L (≈ 5.09 µM) | 0.97 mg/L (≈ 2.53 µM) | 0.97 mg/L (≈ 2.53 µM) | 2.22 | −3.9066 | 0.079 | −0.443 | 356 °C | O=C1N=C(Nc2ccccc2)SC1=Cc1coc2ccc(Cl)cc2c1=O [Compound 6e, 5-((6-Chloro-4-oxo-4H-chromen-3-yl)methylene)-2-(phenylamino)thiazol-4(5H)-one] | 0.97 mg/L (≈ 2.53 µM) | 3.9 mg/L (≈ 10.2 µM) |  |  | 3.9 mg/L (≈ 10.2 µM) | 3.9 mg/L (≈ 10.2 µM) | 16 ± 1 mm | 
3.9 mg/L (≈ 12.4 µM) | 15.6 mg/L (≈ 49.6 µM) | 7.81 mg/L (≈ 24.8 µM) | 7.81 mg/L (≈ 24.8 µM) | 2.1738 | −3.9258 | 0.485 | −0.534 | 278 to 280 °C | O=C1N=C(Nc2ccccc2)SC1=Cc1cccc(Cl)c1 [Compound 6a, 5-(3-Chlorobenzylidene)-2-(phenylamino)thiazol-4(5H)-one] | 3.9 mg/L (≈ 12.4 µM) | 31.2 mg/L (≈ 99.3 µM) |  |  | 3.9 mg/L (≈ 12.4 µM) | 15.6 mg/L (≈ 49.6 µM) | 20 ± 0.5 mm | 
1.95 mg/L (≈ 4.5 µM) | 7.81 mg/L (≈ 18 µM) | 1.95 mg/L (≈ 4.5 µM) | 1.95 mg/L (≈ 4.5 µM) | 2.3983 | −3.319 | −3.292 | 0.708 | 266 to 268 °C | O=C1N=C(Nc2cccc3ccccc23)SC1=Cc1coc2ccc(Cl)cc2c1=O [Compound 9e, 5-((6-Chloro-4-oxo-4H-chromen-3-yl)methylene)-2-(naphthalen-1-ylamino)thiazol-4(5H)-one] | 3.9 mg/L (≈ 9.01 µM) | 15.6 mg/L (≈ 36.1 µM) |  |  | 3.9 mg/L (≈ 9.01 µM) | 3.9 mg/L (≈ 9.01 µM) | 22 ± 0.5 mm | 
